This experiment relates to EMT-6 breast tumor xenograft. Nature of the experiment: MicroPET imaging studies in mice bearing EMT-6 breast tumor. The experiment is classed as in vivo, Balb-c mice. As to the method: The no-carrier-added (NCA) study is on the left and the sigma receptor blocking study (1 mg/kg, i.v. YUN-143) is shown on the right.
This compound was studied in mature Balb/C mice that were implanted with EMT-6 mammary tumors. The mice were implanted in the nape of the neck 7 days prior to the study. The biodistribution study consisted of three groups: 1 hr low dose (≈6 μCi), 4 hr low dose and a 4 hr high dose (≈150 μCi). The % ID/g at 1 hr for tumor, brain, fat, blood and liver were 4.0±0.4, 0.25±0.02, 1.1±0.4, 2.1±0.3 and 5.4±0.4, respectively. At 4 hr for the low dose animals the values decreased to 1.2±0.2, 0.15±0.02, 0.3±0.2, 0.82±0.08 and 1.3±0.2, respectively. […] The activity injected into the high dose animals was enough to perform microPET® imaging studies. […] This initial study has shown that this σ2 receptor compound has a high uptake into EMT-6 mammary tumors and can be imaged non-invasively. (MicroPET® is a dedicated PET scanner designed for high resolution imaging of small laboratory animals. It is available from Concorde Microsystems, Inc. 10427 Cogdill Rd, Suite 500 Knoxville, Tenn. 37932 USA.)
MicroPET® Imaging Studies—The inventors conducted microPET® imaging studies with [^76Br]6 in Balb-c mice bearing EMT-6 breast tumor xenografts to model a living mammal afflicted with cancer.

`COc1cc2c(cc1OC)CN(CCCCNC(=O)c1cc([76Br])cc(OC)c1OC)CC2` [[^76Br]6]: where the note is “high dose animals, 1 and 2 hr, three animals”, the “microPET imaging: identification of tumors” value was “tumors were clearly identified”. In addition, the “microPET imaging: tumor uptake, NCA study versus sigma receptor blocking study” value (no-carrier-added versus blocking with YUN-143 1 mg/kg i.v.) is listed as “high uptake of the radiotracer in the NCA study (left image), which can be blocked with a known sigma receptor ligand”.

Values taken from patent publication US7893266B2, “Detection of cancer cells in vitro using sigma-2 receptor ligands as radiotracers” (Washington University, priority 2003, dated 2011).
